Source: BindingDB's records for doi:10.1016/j.bioorg.2017.02.017 (Warsaw University of Technology, 2017)

Molecular target: Casein kinase II subunit alpha (Homo sapiens, UniProt P68400)
Assay: CK2α Inhibition Assay
Procedure: The activity of CK2α was tested using P81 filter isotopic assay, as it was described earlier [Łukowska-Chojnacka et al., Bioorg.

Chain of Casein kinase II subunit alpha (P68400 whole entry): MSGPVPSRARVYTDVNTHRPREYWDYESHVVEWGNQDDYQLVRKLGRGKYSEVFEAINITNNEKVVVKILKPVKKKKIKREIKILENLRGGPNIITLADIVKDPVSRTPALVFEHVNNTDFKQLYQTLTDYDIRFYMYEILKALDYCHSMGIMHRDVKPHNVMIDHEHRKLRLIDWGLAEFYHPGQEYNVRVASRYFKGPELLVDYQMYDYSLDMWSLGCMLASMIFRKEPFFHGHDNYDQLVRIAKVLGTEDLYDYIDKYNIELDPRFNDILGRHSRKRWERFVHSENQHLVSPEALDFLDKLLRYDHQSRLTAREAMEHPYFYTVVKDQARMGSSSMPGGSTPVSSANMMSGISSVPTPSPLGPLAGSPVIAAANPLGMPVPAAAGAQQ

SMILES | Ki [µM]
O=C(O)CCc1cn(CCCn2cnc3c(Br)c(Br)c(Br)c(Br)c32)nn1 [3-{1-[3-(4,5,6,7-Tetrabromo-1H-benzimidazol-1-yl)propyl]-1H-1,2,3-triazole-4-yl}propanoic acid (11)] | 2.37
O=C(O)c1cn(CCCn2nc3c(Br)c(Br)c(Br)c(Br)c3n2)nn1 [1-[3-(4,5,6,7-Tetrabromo-2H-benzotriazol-2-yl)propyl]-1H-1,2,3-triazole-4-carboxylic acid (22)] | 2.47
O=C(O)c1cn(CCCn2cnc3c(Br)c(Br)c(Br)c(Br)c32)nn1 [1-[3-(4,5,6,7-Tetrabromo-1H-benzimidazol-1-yl)propyl]-1H-1,2,3-triazole-4-carboxylic acid (10)] | 0.91
O=C(O)c1cn(CCn2cnc3c(Br)c(Br)c(Br)c(Br)c32)nn1 [1-[2-(4,5,6,7-Tetrabromo-1H-benzimidazol-1-yl)ethyl]-1H-1,2,3-triazole-4-carboxylic acid (7)] | 1.96
O=C(O)CCc1cn(CCn2cnc3c(Br)c(Br)c(Br)c(Br)c32)nn1 [3-{1-[2-(4,5,6,7-Tetrabromo-1H-benzimidazol-1-yl)ethyl]-1H-1,2,3-triazole-4-yl}propanoic acid (8)] | 5.37
O=C(O)CCc1cn(CCCn2nc3c(Br)c(Br)c(Br)c(Br)c3n2)nn1 [3-{1-[3-(4,5,6,7-Tetrabromo-2H-benzotriazol-2-yl)propyl]-1H-1,2,3-triazole-4-yl}propanoic acid (23)] | 3.16

Next, values leading:

Ki [µM] | SMILES
2.26 | Cc1c(Br)c(Br)c(Br)c2nc[nH]c12 [4,5,6-tribromo-7-methyl-1H-benzimidazole (13)]
2.34 | [N-]=[N+]=NCCn1cnc2c(Br)c(Br)c(Br)c(Br)c21 [1-(2-Azidoethyl)-4,5,6,7-tetrabromo-1H-benzimidazole (3)]
3.28 | [N-]=[N+]=NCCCn1cnc2c(Br)c(Br)c(Br)c(Br)c21 [1-(3-Azidopropyl)-4,5,6,7-tetrabromo-1H-benzimidazole (5)]
